Test results: patent US7317037B2, “Progesterone receptor modulators comprising pyrrole-oxindole derivatives and uses thereof” (Wyeth, priority 2004, dated 2008)

Tested on: rat uterine decidualization
Assay: Rat decidualization assay
Assay type: in vivo
Conditions: po, read-out: ED50 in the rat decidual assay
Protocol: B. Progestational and Antiprogestational Activity in Mature Ovariectomized Rats (Rat Decidualization Assay)
This assay is used to evaluate the effect of progestins and antiprogestins on rat uterine decidualization and compare the relative potencies of various test compounds.
Test compounds are dissolved in 100% ethanol and mixed with corn oil (vehicle). Stock solutions of the test compounds in oil (Mazola™) are then prepared by heating (˜80° C.) the mixture to evaporate ethanol. Test compounds are subsequently diluted with 100% corn oil or 10% ethanol in corn oil prior to the treatment of animals. No difference in decidual response is found when these two vehicles are compared. […]
Approximately 24 hr after the third injection, decidualization is induced in one of the uterine horns of anesthetized rats by scratching the antimesometrial luminal epithelium with a blunt 21 G needle. […] Approximately 24 hr following the final treatment, rats are sacrificed by […] and bodyweight measured. […]
In agonist mode, the increase in weight of the decidualized uterine horn is calculated by D-horn/C-horn and logarithmic transformation is used to maximize normality and homogeneity of variance. […] EC50 is calculated from the transformed value. […] IC50 is calculated from the retransformed value. […]

Cn1c(C#N)ccc1-c1cc(F)c2c(c1)C(C)(C)C(=O)N2 [5-(7-fluoro-3,3-dimethyl-2-oxo-2,3-dihydro-1H-indol-5-yl)-1-methyl-1H-pyrrole-2-carbonitrile]
ED50: 0.1 mg/kg
